In patent publication US20070078058A1, “Use of MCPP to inhibit tuber sprouting” (ACETO AGRICULTURAL CHEMICALS CORP., priority 2005, published 2007):

Columns and labels:
[1] = tested on: Russet Burbank potatoes; assay: Sprout inhibition of stored Russet Burbank potatoes (second trial, 46 degrees F.), thermal fogs and liquid sprays; format: in vivo, Solanum tuberosum
Text: (§1) The storage system was designed to duplicate a large commercial storage facility in miniature. Drums containing 150-200 pounds of potatoes were sealed and housed in a building in which temperature was maintained throughout the testing period at 54 degrees F. for the first summer trial with Norkotah potatoes and 46 degrees F. for the Russet Burbank potatoes in the second trial. During both trials the humidity was maintained at […]. Formed in each drum is an inlet in which untreated air (ventilation air) was introduced under a perforated floor to the drum. The ventilation air moves through the pile of potatoes and is exhausted from the top of the drum to the outside of the building.
(§2) This storage ventilation was shut down for a 24 hour duration during and directly after the treatment of the chemicals. Then it is maintained for the duration of the trial, with ventilation air forced through the drums at a rate of 0.5 cubic feet per minute on a three-hour on and a three-hour off schedule.
(§3) In the spray application technique the formulations were mixed with water and sprayed on the newly harvested tubers at a rate of 5 and 10 parts per million (weight of the active to weight of the potatoes) mixed in a water carrier. The mixture was applied at 1 quart per ton of potatoes. The spray was applied via a hand held spray gun propelled with compressed air as the tubers were rotating in a cement mixer drum. This insured that all surface area is coated with the active ingredient.
(§4) The custom thermal fogger's heat source was an electric hot plate set at 500 degrees F. This temperature is monitored throughout the application with a thermal couple that is inserted in a cavity just below the surface where the chemical is placed. A chamber was attached to the hot plate. A fan was mounted to the top of the chamber. The fogger was attached to the storage container with flexible tubing.
(§5) The fog was delivered to each drum through separate ports. Through the bottom port of the storage drum a perforated stinger was installed that runs the length of the drum. Flexible tubing delivered the fog air mixture from the fogger. The fog air mixture was returned to the thermal fogger through a second flexible tubing that was attached from the top of the storage drum to the bottom of the thermal fogger. The air fog mixture was re-circulated through the system for five minutes.
Russet Burbank potatoes were selected for the second trial. The Russet Burbank is noted for its long term storability and is one of the most popular cultivars used for storage as it can be used as both a fresh pack potato and also has very desirable processing qualities.
(§6) The potatoes were monitored for sprout activity on a regular basis after treatment. When early sprout activity was observed the potatoes were first evaluated. Then at approximately 30 day intervals, 60 tubers were randomly selected from each treatment. Each tuber was rated for the length of the longest sprout on each tuber. The scale used for the rating system as is follows: • 0—Not Peeping=no sprout or swelling of eye tissue evident. • 1—Peeping=swelling of eye tissue up to a sprout length of 3 mm • 2—sprout length from 3 mm to 1 cm. • 3—sprout length from 1 cm to 3 cm. • 4—sprout length from 3 cm to 5 cm. • 5—sprout length from 5 cm and longer
(§7) Results of each set of 60 tubers were recorded into 6 subsets of 10 tubers each (replicates). Each set is summarized as a percent. The data is also summarized into AVERAGE SPROUT LENGTH and PERCENT OK RE: FRESHPCK (Fresh pack).
(§8) The PERCENT OK RE: FRESHPCK is the percent of the tubers that are NOT PEEPING and PEEPING categories combined together.
(§9) The MCPP spray was a MCPP potassium salt providing 2.5 pounds active ingredient per gallon of inert ingredients (water/coformulants). […]

[2] = tested on: Russet Norkotah potatoes; assay: Sprout inhibition of stored Russet Norkotah potatoes (first trial, 54 degrees F.); format: in vivo, Solanum tuberosum
Text: as §1, §2, §3
All of the treatments in the reported test on Russet Norkotah used this technique with the exception of Untreated and CIPC A (CIPC 98A) that was thermal fogged.
as §4, §5
Russet Norkotah potatoes were selected for the first trial for their short natural dormancy and aggressive sprouting.
as §6, §7, §8, §9

[3] = Concentration analysis: amounts recovered on the whole potato; conditions: thermal fog application
Text: Much better results were obtained with the spray applications compared to the thermal fog applications of MCPP, believed to be due to the fact that we established a higher concentration on the tuber via spray.
For example, for spray and thermal fog application, amounts recovered on the whole potato approximately four months later were as follows: MCPP10 ppm applied via thermal fog=0.038 ppm MCPP10 ppm applied via liquid spray=6.3 ppm

[4] = 11 ppm Fog, 132 days after harvest
[5] = 11 ppm Fog, 161 days after harvest
[6] = 11 ppm Fog, 191 days after harvest
[7] = 11 ppm Fog, 223 days after harvest
[8] = 11 ppm Fog, 252 days after harvest
[9] = 11 ppm Fog, 283 days after harvest
[10] = 5 ppm Fog, 132 days after harvest
[11] = 5 ppm Fog, 161 days after harvest
[12] = 5 ppm Fog, 191 days after harvest
[13] = 5 ppm Fog, 223 days after harvest
[14] = 5 ppm Fog, 252 days after harvest
[15] = 5 ppm Fog, 283 days after harvest
[16] = 5 ppm Spray, 132 days after harvest
[17] = 5 ppm Spray, 161 days after harvest
[18] = 5 ppm Spray, 191 days after harvest
[19] = 5 ppm Spray, 223 days after harvest
[20] = 5 ppm Spray, 252 days after harvest
[21] = 5 ppm Spray, 283 days after harvest

| Molecule | % OK For Fresh Pack Dormant + sprout up to 3 mm [1, 4] | % OK For Fresh Pack Dormant + sprout up to 3 mm [1, 5] | % OK For Fresh Pack Dormant + sprout up to 3 mm [1, 6] | % OK For Fresh Pack Dormant + sprout up to 3 mm [1, 7] | % OK For Fresh Pack Dormant + sprout up to 3 mm [1, 8] | % OK For Fresh Pack Dormant + sprout up to 3 mm [1, 9] | % OK For Fresh Pack Dormant + sprout up to 3 mm [1, 10] | % OK For Fresh Pack Dormant + sprout up to 3 mm [1, 11] | % OK For Fresh Pack Dormant + sprout up to 3 mm [1, 12] | % OK For Fresh Pack Dormant + sprout up to 3 mm [1, 13] | % OK For Fresh Pack Dormant + sprout up to 3 mm [1, 14] | % OK For Fresh Pack Dormant + sprout up to 3 mm [1, 15] | % OK for Fresh Pack Dormant + sprout up to 3 mm ([2]; 5 ppm Spray, 53 DAH) | % OK for Fresh Pack Dormant + sprout up to 3 mm ([2]; 5 ppm Spray, 85 DAH) | % OK for Fresh Pack Dormant + sprout up to 3 mm ([2]; 5 ppm Spray, 107 DAH) | % OK for Fresh Pack Dormant + sprout up to 3 mm ([2]; 10 ppm Spray, 53 DAH) | % OK for Fresh Pack Dormant + sprout up to 3 mm ([2]; 10 ppm Spray, 85 DAH) | % OK for Fresh Pack Dormant + sprout up to 3 mm ([2]; 10 ppm Spray, 107 DAH) | % OK For Fresh Pack Dormant + sprout up to 3 mm [1, 16] | % OK For Fresh Pack Dormant + sprout up to 3 mm [1, 17] | other results |
| --- | --- | --- | --- | --- | --- | --- | --- | --- | --- | --- | --- | --- | --- | --- | --- | --- | --- | --- | --- | --- | --- |
| Diisopropylnaphthalene [DIPN, reference compound] | 56.7% | 15% | 0% | 0% | 0% | 0% | – | – | – | – | – | – | – | – | – | – | – | – | – | – | – |
| O=C(O)COc1ccc(Cl)cc1Cl [2,4 D Acid, (2,4-(dichlorophenoxy)-acetic acid, reference compound] | – | – | – | – | – | – | 100.0% | 16.7% | 0.0% | 0.0% | 0.0% | 0.0% | – | – | – | – | – | – | – | – | – |
| CC(C)OC(=O)Nc1cccc(Cl)c1 [CIPC 98A, isopropyl 3-chlorophenylcarbamate, reference compound] | 100.0% | 26.7% | 0.0% | 0.0% | 0.0% | 0.0% | – | – | – | – | – | – | – | – | – | – | – | – | – | – | % OK for Fresh Pack Dormant + sprout up to 3 mm ([2]; 16.6 ppm Fog, 53 DAH): 100.0%; % OK for Fresh Pack Dormant + sprout up to 3 mm ([2]; 16.6 ppm Fog, 85 DAH): 86.7%; % OK for Fresh Pack Dormant + sprout up to 3 mm ([2]; 16.6 ppm Fog, 107 DAH): 86.7%; % OK For Fresh Pack Dormant + sprout up to 3 mm ([1]; 16.6 ppm Fog, 132 days after harvest): 100.0%; % OK For Fresh Pack Dormant + sprout up to 3 mm ([1]; 16.6 ppm Fog, 161 days after harvest): 26.7%; % OK For Fresh Pack Dormant + sprout up to 3 mm ([1]; 16.6 ppm Fog, 191 days after harvest): 0.0%; % OK For Fresh Pack Dormant + sprout up to 3 mm ([1]; 16.6 ppm Fog, 223 days after harvest): 0.0%; % OK For Fresh Pack Dormant + sprout up to 3 mm ([1]; 16.6 ppm Fog, 252 days after harvest): 0.0%; % OK For Fresh Pack Dormant + sprout up to 3 mm ([1]; 16.6 ppm Fog, 283 days after harvest): 0.0% |
| O=C(O)CCCOc1ccc(Cl)cc1Cl [2,4 DB] | – | – | – | – | – | – | – | – | – | – | – | – | 81.7% | 3.3% | 0.0% | 91.7% | 11.7% | 0.0% | – | – | – |
| Cc1cc(Cl)ccc1OC(C)C(=O)O (stereo not shown) [MCPP, 2-(4-Chloro-2-methylphenoxy)propanoic acid] | – | – | – | – | – | – | 93.3% | 3.3% | 0.0% | 0.0% | 0.0% | 0.0% | 98.3% | 53.3% | 1.7% | 100.0% | 71.7% | 25.0% | 100.0% | 95.0% | stability when exposed to heat [3]: break down rapidly when exposed to heat; % OK For Fresh Pack Dormant + sprout up to 3 mm [1, 18]: 73.3%; % OK For Fresh Pack Dormant + sprout up to 3 mm [1, 19]: 38.3%; % OK For Fresh Pack Dormant + sprout up to 3 mm [1, 20]: 6.7%; % OK For Fresh Pack Dormant + sprout up to 3 mm [1, 21]: 5.0%; % OK For Fresh Pack Dormant + sprout up to 3 mm ([1]; 10 ppm Fog, 132 days after harvest): 100.0%; % OK For Fresh Pack Dormant + sprout up to 3 mm ([1]; 10 ppm Fog, 161 days after harvest): 15.0%; % OK For Fresh Pack Dormant + sprout up to 3 mm ([1]; 10 ppm Fog, 191 days after harvest): 0.0%; % OK For Fresh Pack Dormant + sprout up to 3 mm ([1]; 10 ppm Fog, 223 days after harvest): 0.0%; % OK For Fresh Pack Dormant + sprout up to 3 mm ([1]; 10 ppm Fog, 252 days after harvest): 0.0%; % OK For Fresh Pack Dormant + sprout up to 3 mm ([1]; 10 ppm Fog, 283 days after harvest): 0.0%; % OK For Fresh Pack Dormant + sprout up to 3 mm ([1]; 10 ppm Spray, 132 days after harvest): 100.0%; % OK For Fresh Pack Dormant + sprout up to 3 mm ([1]; 10 ppm Spray, 161 days after harvest): 100.0%; % OK For Fresh Pack Dormant + sprout up to 3 mm ([1]; 10 ppm Spray, 191 days after harvest): 90.0%; % OK For Fresh Pack Dormant + sprout up to 3 mm ([1]; 10 ppm Spray, 223 days after harvest): 65.0%; % OK For Fresh Pack Dormant + sprout up to 3 mm ([1]; 10 ppm Spray, 252 days after harvest): 20.0%; % OK For Fresh Pack Dormant + sprout up to 3 mm ([1]; 10 ppm Spray, 283 days after harvest): 10.0% |
| CCCCC(CC)COC(=O)COc1ccc(Cl)cc1Cl (stereo not shown) [2,4 D LV, Isooctyl (2-ethylhexyl) ester of 2,4-Dichlorphenoxyacetic acid] | – | – | – | – | – | – | – | – | – | – | – | – | – | – | – | – | – | – | 96.7% | 30.0% | % OK For Fresh Pack Dormant + sprout up to 3 mm [1, 18]: 8.3%; % OK For Fresh Pack Dormant + sprout up to 3 mm [1, 19]: 0.0%; % OK For Fresh Pack Dormant + sprout up to 3 mm [1, 20]: 0.0%; % OK For Fresh Pack Dormant + sprout up to 3 mm [1, 21]: 0.0% |
